Consider one molecule from article PMC6934184, “Selective DNA-PKcs inhibition extends the therapeutic index of localized radiotherapy and chemotherapy” (The Journal of Clinical Investigation, 2019).

The target in this assay is T1, ROCK2 (Homo sapiens, UniProt O75116).
T1 construct: purchased Thermo Fisher Scientific (Life Technologies) SelectScreen
As to the kind of experiment: SelectScreen Z'LYTE. It is filed as biochemical. The method, boiled down:
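NU5455 was profiled across the SelectScreen Broad panel of kinase activity and binding assays. Z'LYTE reactions such as CSF1R ran at apparent Km ATP, while the Adapta CAMK1 assay used ATP listed as 10. Values are given as percent.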

T1 sequence (O75116 whole entry): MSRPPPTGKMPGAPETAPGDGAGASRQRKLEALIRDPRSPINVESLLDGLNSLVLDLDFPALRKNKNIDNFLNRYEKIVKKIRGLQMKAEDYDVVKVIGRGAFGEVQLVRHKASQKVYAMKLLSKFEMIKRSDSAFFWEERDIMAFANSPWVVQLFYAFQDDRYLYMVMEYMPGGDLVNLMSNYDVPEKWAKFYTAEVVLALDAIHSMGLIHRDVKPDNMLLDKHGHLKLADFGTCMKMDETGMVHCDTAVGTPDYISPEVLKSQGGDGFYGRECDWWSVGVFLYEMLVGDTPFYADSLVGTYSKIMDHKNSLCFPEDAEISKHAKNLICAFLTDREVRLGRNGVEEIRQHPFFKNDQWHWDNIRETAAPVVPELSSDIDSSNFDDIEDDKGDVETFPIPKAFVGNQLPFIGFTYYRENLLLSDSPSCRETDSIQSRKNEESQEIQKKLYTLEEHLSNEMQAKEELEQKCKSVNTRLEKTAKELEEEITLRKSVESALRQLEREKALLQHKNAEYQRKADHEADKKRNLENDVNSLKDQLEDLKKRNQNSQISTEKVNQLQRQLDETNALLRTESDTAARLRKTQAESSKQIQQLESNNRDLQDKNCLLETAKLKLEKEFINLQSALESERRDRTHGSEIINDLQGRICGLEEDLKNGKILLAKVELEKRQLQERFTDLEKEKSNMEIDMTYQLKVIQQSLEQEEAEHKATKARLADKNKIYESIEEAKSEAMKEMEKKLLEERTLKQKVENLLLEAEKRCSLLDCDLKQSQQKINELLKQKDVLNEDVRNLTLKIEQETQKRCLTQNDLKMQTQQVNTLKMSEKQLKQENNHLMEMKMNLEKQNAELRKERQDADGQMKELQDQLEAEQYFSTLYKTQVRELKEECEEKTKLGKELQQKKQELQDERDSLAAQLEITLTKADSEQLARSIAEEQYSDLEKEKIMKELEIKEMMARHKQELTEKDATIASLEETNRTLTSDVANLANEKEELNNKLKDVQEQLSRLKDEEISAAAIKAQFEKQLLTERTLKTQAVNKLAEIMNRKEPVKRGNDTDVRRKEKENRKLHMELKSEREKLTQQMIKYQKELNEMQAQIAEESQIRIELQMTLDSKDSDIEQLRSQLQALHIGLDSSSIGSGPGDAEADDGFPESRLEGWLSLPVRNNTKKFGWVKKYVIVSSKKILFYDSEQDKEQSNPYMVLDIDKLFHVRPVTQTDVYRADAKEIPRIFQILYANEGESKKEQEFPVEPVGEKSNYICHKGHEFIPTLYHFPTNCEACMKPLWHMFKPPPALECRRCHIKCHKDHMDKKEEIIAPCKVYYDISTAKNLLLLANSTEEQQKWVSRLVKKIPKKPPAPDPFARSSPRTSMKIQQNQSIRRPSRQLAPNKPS

Turning to `CN(C(=O)CN1CCOCC1)c1ccc2sc3c(-c4cccc5c(=O)cc(N6CC7CCC(C6)O7)oc45)cccc3c2c1` [NU5455], the inhibition (commonly the drop in the measured response relative to a control, in per cent) at 1 µM is -4.1%.
